Test results as given in patent US7074459B2, “Method for preserving wood” (priority 2003, dated 2006).

Assays:
Type in all cases: cell-based
[1] = system: Pseudomonas aeruginosa (gram negative); assay: Bacteriostatic activity in Oxoid No. 2 nutrient broth; conditions: 0.1 wt. %, 48 hours incubation
Procedure: (§1) The bacteriostatic activity of several complexes was investigated by testing at 0.1 wt. % using Oxoid No. 2 nutrient broth and inoculating the broth with 1 ml of a 24 hour broth culture of the test organisms. After incubation at the optimum growth temperature of the organism for 48 hours.
(§2) The organisms tested were:
Pseudomonas aeruginosa (gram negative)

[2] = system: Staphylococcus aureous (gram positive); assay: as above; conditions: 0.1 wt. %, 48 hours incubation
Procedure: as §1, §2
Staphylococcus aureous (gram positive)

[3] = system: Escherichia coli (gram negative); assay: as above; conditions: 0.1 wt. %, 48 hours incubation
Procedure: as §1, §2
Escherichia coli (gram negative)

[4] = system: brown-rot fungus Gloeophyllum trabeum; assay: ASTM 1413 standard soil block test, 12 weeks; conditions: 1% treatment, unleached, 12-week soil block test with G. trabeum
Procedure: The following five wood preservatives were prepared for testing according to ASTM Stanard D 1413. • 1. chlorhexidine (CH)—Omadine^a 1:2 complex • 2. Polyhexamethylene biguanide—Omadine 1:1 complex • 3. Bardac^b 2250—Omadine 1:1 complex • 4. Tetrakis(hydroxylmethyl)phosphonium 0 Omadine 1:1 complex • 5. B-55^c polyionene—Omadine 1:2 complex • a) Omadine is 2-mercapto pyridine N-oxide • b) Barclac 2250 is […] • c) […] is poly(oxyethylene(dimethyliminio)ethylene(dimethylimino)ethylene dichloride Biological Evaluation
The ASTM 1413 standard soil block test was performed (ASTM 1999) Five soil bottles of each treatment and solution concentration (plus untreated controls) were exposed to the brown-rot fungus Gloeophyllum trabeum for 12 weeks. Two soil bottles with no fungus were also run to monitor any leaching of chemicals. Specimens were removed from test after 12 weeks exposure and conditioned until constant weight in the conditioning room (27° C./30°RH). The extent of decay was determined by weight loss.

Compound	bacteriostatic activity [1]	bacteriostatic activity [2]	bacteriostatic activity [3]	Wt. Loss % (Fungus) [4] [%]
didecyldimethyl ammonium 2-mercapto-benzothiazole [Compound 5]	bacteriostatic	bacteriostatic	bacteriostatic	–
N=C(NCCCCCCNC(=N)NC(=N)Nc1ccc(Cl)cc1)NC(=N)Nc1ccc(Cl)cc1.Oc1cc(Cl)ccc1Oc1ccc(Cl)cc1Cl.Oc1cc(Cl)ccc1Oc1ccc(Cl)cc1Cl [Compound 10, chlorhexidinium di (triclosante)]	bacteriostatic	bacteriostatic	bacteriostatic	–
OC[P+](CO)(CO)CO.[O-][n+]1ccccc1[S-] [Compound 8]	bacteriostatic	bacteriostatic	bacteriostatic	−0.07
N=C(NCCCCCCNC(=N)NC(=N)Nc1ccc(Cl)cc1)NC(=N)Nc1ccc(Cl)cc1.On1ccccc1=S.On1ccccc1=S [Compound 6, chlorhexidinium di(2-mercapto-pyridine N-oxides)]	bacteriostatic	bacteriostatic	bacteriostatic	1.57
